Patent US8337851B2, “Methods of monitoring the efficacy of anti-CD40 antibodies in treating a subject for a CD40-expressing cancer” (Novartis AG, priority 2005, dated 2012)

Tests used:
[1] = system: CLL cells; experiment: CD40L-induced cytokine secretion by CLL cells (Meso Scale Discovery); format: cell-based, human; settings: CLL #1; 10 μg/ml, 24 hours; preliminary, n=1
Protocol: Cells (1×10^5 cells per well) were cultured in a 96-well plate in the presence or absence of CD40L (CD40 transfected, formaldehyde fixed CHO cells, 2×10^5 per well). […] Production of hIL-6, hIL-8, hIL-10, hTNF-α, hGM-CSF, hIL-1b, hIL-12p70, MCP-1, and MIP-1β was measured by Meso Scale Discovery® multi-array system (Meso Scale Discovery, Gaithersburg, Md.).

[2] = system: ARH-77 cells; experiment: ADCC, Calcein release with human NK cells, ARH-77; format: cell-based; settings: NK:target 10 to 1, 4 hours, read-out: ED50 (percent specific lysis)
Protocol: Human MM cell lines, KMS-12-BM, IM-9, and ARH-77, were washed 3 times using R2 medium (Pheno red-free RPMI with 2% FBS) and re-suspended in R10 medium (Pheno red-free RPMI with 10% FBS) at the density of 1×10^6/mL. Cells were labeled by adding Calcein AM (final concentration […]) and incubating for 30 minutes at 37° C. in a humidified atmosphere with 5% CO2. Purified human NK cells and Calcein-labeled target cells were mixed in R10 medium at the ratio of 10 to 1 (5×10^4 NK cells and 5×10^3 target cells in […]) and added in U-bottom 96 well plate (Packard's Instrument, Meriden, Conn.). […] 1% NP-40 was added in 3 wells for the maximum cell lysis. Cells were incubated for 4 hours without disturbance at 37° C. in a humidified atmosphere with 5% CO2. The plate was then centrifuged at 300 rpm without brake for 5 minutes. […] supernatant was transferred into a new 96 well plate. The released Calcein in the supernatant was measured in arbitrary fluorescent unit (AFU) at 485 nm excitation and 535 nm emission using Tecan SpectraFluor Plus (Tecan U.S., Inc., Research Triangle, N.C.). The percent of specific lysis was calculated as: 100×(AFU test−AFU spontaneous release)/(AFU maximal release−AFU spontaneous release).
The ED50 was determined for each cell line by plotting the log of antibody concentration versus the percent specific lysis (see FIG. 16).

[3] = system: B-CLL cells from patients; experiment: Flow cytometry of cleaved PARP and TUNEL in B-CLL cells; format: cell-based, human; settings: 10 μg/ml with 1 μg/ml sCD40L, 24 hours
Protocol: In this experiment, 0.4×10^6B-CLL cells from patients were stimulated with 1 μg/ml sCD40L (Alexis Corp., Bingham, Nottinghamshire, UK). CHIR12.12 (10 μg/ml) or control IgG was then added. […] After fixation and permeabilization, the cells were stained for cleaved PARP and TUNEL methods.

[4] = system: cancer cells from NHL and CLL patients; experiment: In vitro CD40 ligand-mediated proliferation of patient cancer cells; format: cell-based, human
Excerpt: 4, 2003, Nov. 26, 2003, and Apr. 27, 2004, and assigned U.S. Patent Application Nos. 60/517,337, 60/525,579, and 60/565,710, respectively, and International Patent Application No. PCT/US2004/037152, also entitled “Antagonist, Anti-CD40 Monoclonal Antibodies and Methods for Their Use,” filed Nov. 4, 2004; the contents of each of which are herein incorporated by reference in their entirety.

[5] = system: KMS-12-BM tumor; experiment: Human KMS-12-BM subcutaneous xenograft model; format: in vivo, SCID mice; settings: 42 days post cell implantation
Protocol: Female SCID mice were treated with 3Gy irradiation one day prior to implantation of tumor cells. On the day of implantation, cells were prepared at a concentration of 5×10^7 cells/ml in 50% matrigel. Cells were implanted subcutaneously over the right flank at 5×10^6 cells/100 μl/mouse. […] Antibodies were administered intraperitoneally once a week for 4 weeks. Bortezomib was administered intravenously twice a week for two weeks.

[6] = system: normal human B cells; experiment: Western blot of survival and signaling markers in normal human B cells; format: cell-based; settings: 10 μg/ml, 24 hr, 2 μg/ml rhsCD40L, vs hIgG1
Excerpt: Cells were lysed and whole cell lysates resolved by SDS-PAGE and Western blotting using antibodies specific to human cPARP, Mcl-1, Bcl-xl, p-Akt, and p-p38 MAPK. All membranes were stripped and re-probed for either β-actin or AKT or p38 MAPK total protein, as appropriate.

CHIR-12.12: fully human anti-CD40 monoclonal antibody of the IgG1 isotype from hybridoma cell line 153.8E2.D10.D6.12.12 (ATCC PTA-5543)
inhibition of CD40-ligand-induced MCP-1 secretion [1]: 34.8 % inhibition | inhibition of CD40-ligand-induced hGM-CSF secretion [1]: 86.5 % inhibition | inhibition of CD40-ligand-induced hIL-8 secretion [1]: 91.0 % inhibition | inhibition of CD40-ligand-induced hIL-10 secretion [1]: 99.6 % inhibition | inhibition of CD40-ligand-induced hTNF-α secretion [1]: 89.6 % inhibition | EC50 [2]: 0.0239 nM | percentage of cells positive for cleaved PARP or TUNEL [3]: the percentage of positive cells for cleaved PARP or TUNEL returned to the levels seen without sCD40L stimulation | effect on CD40 ligand-mediated proliferation of cancer cells [4]: inhibiting in vitro CD40 ligand-mediated proliferation of cancer cells from NHL and CLL patients | tumor volume reduction ([5]; 1 mg/kg i.p. once a week for 4 weeks, P>0.05): 32% | tumor volume reduction ([5]; 10 mg/kg i.p. once a week for 4 weeks, P<0.05): 35% | CD40L-mediated effects on cPARP, Mcl-1, Bcl-xl, p-Akt, p-p38 [6]: blocked these CD40L-mediated effects on normal B cells
